Measured values reported in PubChem BioAssay (NCI).
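Cells were grown in 96-well plates and exposed to each compound for 48 hours at five concentrations; endpoints were interpolated linearly between bracketing concentrations, or set to the highest concentration if not reached. Definition used: TGI = concentration required for complete inhibition of growth.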

Columns and labels:
Experiment in all cases: inhibition of tumour cell growth, NCI panel, 48 h
MOLT-4 leukemia = tested on: MOLT-4 leukemia
KM20L2 colon = tested on: KM20L2 colon
HT29 colon = tested on: HT29 colon
HCT-116 colon = tested on: HCT-116 colon
UO-31 renal = tested on: UO-31 renal
HL-60(TB) leukemia = tested on: HL-60(TB) leukemia
786-0 renal = tested on: 786-0 renal
HOP-62 NSCLC = tested on: HOP-62 NSCLC
LXFL 529 NSCLC = tested on: LXFL 529 NSCLC
RPMI-8226 leukemia = tested on: RPMI-8226 leukemia
EKVX NSCLC = tested on: EKVX NSCLC
SK-MEL-2 melanoma = tested on: SK-MEL-2 melanoma
SN12C renal = tested on: SN12C renal
MALME-3M melanoma = tested on: MALME-3M melanoma
XF 498 CNS = tested on: XF 498 CNS
OVCAR-8 ovarian = tested on: OVCAR-8 ovarian
DMS 273 small cell lung = tested on: DMS 273 small cell lung
SF-539 CNS = tested on: SF-539 CNS
SK-MEL-28 melanoma = tested on: SK-MEL-28 melanoma
SF-268 CNS = tested on: SF-268 CNS
TK-10 renal = tested on: TK-10 renal
ACHN renal = tested on: ACHN renal
SW-620 colon = tested on: SW-620 colon
NCI-H460 lung = tested on: NCI-H460 lung
A549 NSCLC = tested on: A549 NSCLC
SNB-19 CNS = tested on: SNB-19 CNS
SK-MEL-5 melanoma = tested on: SK-MEL-5 melanoma
COLO 205 colon = tested on: COLO 205 colon
RXF 393 renal = tested on: RXF 393 renal
KM12 colon = tested on: KM12 colon
SNB-78 CNS = tested on: SNB-78 CNS
LOX IMVI melanoma = tested on: LOX IMVI melanoma
UACC-62 melanoma = tested on: UACC-62 melanoma
CCRF-CEM leukemia = tested on: CCRF-CEM leukemia
IGROV1 ovarian = tested on: IGROV1 ovarian
SR leukemia = tested on: SR leukemia
HCT-15 colon = tested on: HCT-15 colon
NCI-H226 lung = tested on: NCI-H226 lung
K-562 leukemia = tested on: K-562 leukemia
M19-MEL melanoma = tested on: M19-MEL melanoma
M14 melanoma = tested on: M14 melanoma
OVCAR-4 ovarian = tested on: OVCAR-4 ovarian
SF-295 CNS = tested on: SF-295 CNS
HCC-2998 colon = tested on: HCC-2998 colon
U251 CNS = tested on: U251 CNS
NCI-H522 lung = tested on: NCI-H522 lung
OVCAR-5 ovarian = tested on: OVCAR-5 ovarian
OVCAR-3 ovarian = tested on: OVCAR-3 ovarian
CAKI-1 renal = tested on: CAKI-1 renal
SNB-75 CNS = tested on: SNB-75 CNS
NCI-H23 lung = tested on: NCI-H23 lung
UACC-257 melanoma = tested on: UACC-257 melanoma
RXF-631 renal = tested on: RXF-631 renal
A498 renal = tested on: A498 renal
HOP-92 NSCLC = tested on: HOP-92 NSCLC
HOP-18 NSCLC = tested on: HOP-18 NSCLC
DMS 114 small cell lung = tested on: DMS 114 small cell lung
SK-OV-3 ovarian = tested on: SK-OV-3 ovarian
DLD-1 colon = tested on: DLD-1 colon

## C[s+]1c2ccccc2c2ccccc21
MOLT-4 leukemia
  TGI: > 100 µM
KM20L2 colon
  TGI: > 100 µM
HT29 colon
  TGI: > 100 µM
HCT-116 colon
  TGI: > 100 µM
UO-31 renal
  TGI: > 100 µM
HL-60(TB) leukemia
  TGI: > 100 µM
786-0 renal
  TGI: > 100 µM
HOP-62 NSCLC
  TGI: > 100 µM
LXFL 529 NSCLC
  TGI: > 100 µM
RPMI-8226 leukemia
  TGI: > 100 µM
EKVX NSCLC
  TGI: > 100 µM
SK-MEL-2 melanoma
  TGI: > 100 µM
SN12C renal
  TGI: > 100 µM
MALME-3M melanoma
  TGI: > 100 µM
XF 498 CNS
  TGI: > 100 µM
OVCAR-8 ovarian
  TGI: > 100 µM
DMS 273 small cell lung
  TGI: > 100 µM
SF-539 CNS
  TGI: > 100 µM
SK-MEL-28 melanoma
  TGI: > 100 µM
SF-268 CNS
  TGI: > 100 µM
TK-10 renal
  TGI: > 100 µM
ACHN renal
  TGI: > 100 µM
SW-620 colon
  TGI: > 100 µM
NCI-H460 lung
  TGI: > 100 µM
A549 NSCLC
  TGI: > 100 µM
SNB-19 CNS
  TGI: > 100 µM
SK-MEL-5 melanoma
  TGI: > 100 µM
COLO 205 colon
  TGI: > 100 µM
RXF 393 renal
  TGI: > 100 µM
KM12 colon
  TGI: > 100 µM
SNB-78 CNS
  TGI: > 100 µM
LOX IMVI melanoma
  TGI: > 100 µM
UACC-62 melanoma
  TGI: > 100 µM
CCRF-CEM leukemia
  TGI: > 100 µM
IGROV1 ovarian
  TGI: > 100 µM
SR leukemia
  TGI: > 100 µM
HCT-15 colon
  TGI: > 100 µM
NCI-H226 lung
  TGI: > 100 µM
K-562 leukemia
  TGI: > 100 µM
M19-MEL melanoma
  TGI: > 100 µM
M14 melanoma
  TGI: > 100 µM
OVCAR-4 ovarian
  TGI: > 100 µM
SF-295 CNS
  TGI: > 100 µM
HCC-2998 colon
  TGI: > 100 µM
U251 CNS
  TGI: > 100 µM
NCI-H522 lung
  TGI: > 100 µM
OVCAR-5 ovarian
  TGI: > 100 µM
OVCAR-3 ovarian
  TGI: > 100 µM

## CC(=O)N1[C@H](C(=O)O)CS[C@H]1c1ccc(F)cc1
MOLT-4 leukemia
  TGI: > 100 µM
HT29 colon
  TGI: > 100 µM
HCT-116 colon
  TGI: 78.7 µM
UO-31 renal
  TGI: > 100 µM
HL-60(TB) leukemia
  TGI: > 100 µM
786-0 renal
  TGI: > 100 µM
HOP-62 NSCLC
  TGI: > 100 µM
LXFL 529 NSCLC
  TGI: > 100 µM
CAKI-1 renal
  TGI: > 100 µM
SNB-75 CNS
  TGI: > 100 µM
NCI-H23 lung
  TGI: > 100 µM
SN12C renal
  TGI: > 100 µM
UACC-257 melanoma
  TGI: > 100 µM
MALME-3M melanoma
  TGI: > 100 µM
RXF-631 renal
  TGI: > 100 µM
OVCAR-8 ovarian
  TGI: > 100 µM
SF-539 CNS
  TGI: > 100 µM
SK-MEL-28 melanoma
  TGI: > 100 µM
SF-268 CNS
  TGI: > 100 µM
TK-10 renal
  TGI: > 100 µM
ACHN renal
  TGI: > 100 µM
SW-620 colon
  TGI: > 100 µM
A498 renal
  TGI: > 100 µM
NCI-H460 lung
  TGI: > 100 µM
A549 NSCLC
  TGI: > 100 µM
SNB-19 CNS
  TGI: > 100 µM
SK-MEL-5 melanoma
  TGI: > 100 µM
COLO 205 colon
  TGI: > 100 µM
RXF 393 renal
  TGI: > 100 µM
SNB-78 CNS
  TGI: > 100 µM
LOX IMVI melanoma
  TGI: > 100 µM
CCRF-CEM leukemia
  TGI: > 100 µM
IGROV1 ovarian
  TGI: > 100 µM
SR leukemia
  TGI: > 100 µM
HCT-15 colon
  TGI: > 100 µM
HOP-92 NSCLC
  TGI: > 100 µM
NCI-H226 lung
  TGI: > 100 µM
K-562 leukemia
  TGI: > 100 µM
M19-MEL melanoma
  TGI: > 100 µM
HOP-18 NSCLC
  TGI: > 100 µM
M14 melanoma
  TGI: > 100 µM
OVCAR-4 ovarian
  TGI: > 100 µM
DMS 114 small cell lung
  TGI: > 100 µM
SF-295 CNS
  TGI: > 100 µM
HCC-2998 colon
  TGI: > 100 µM
OVCAR-5 ovarian
  TGI: > 100 µM
OVCAR-3 ovarian
  TGI: > 100 µM

## Cc1ccc(C2=CC(=O)c3ccccc3C2=O)n1-c1ccccc1
MOLT-4 leukemia
  TGI: 98.5 µM
KM20L2 colon
  TGI: > 100 µM
SK-OV-3 ovarian
  TGI: > 100 µM
HT29 colon
  TGI: > 100 µM
HCT-116 colon
  TGI: > 100 µM
HL-60(TB) leukemia
  TGI: 94.2 µM
786-0 renal
  TGI: > 100 µM
HOP-62 NSCLC
  TGI: > 100 µM
LXFL 529 NSCLC
  TGI: > 100 µM
RPMI-8226 leukemia
  TGI: > 100 µM
EKVX NSCLC
  TGI: > 100 µM
SNB-75 CNS
  TGI: > 100 µM
NCI-H23 lung
  TGI: > 100 µM
SN12C renal
  TGI: > 100 µM
XF 498 CNS
  TGI: > 100 µM
OVCAR-8 ovarian
  TGI: > 100 µM
DMS 273 small cell lung
  TGI: > 100 µM
SF-539 CNS
  TGI: > 100 µM
SK-MEL-28 melanoma
  TGI: > 100 µM
SF-268 CNS
  TGI: > 100 µM
TK-10 renal
  TGI: > 100 µM
SW-620 colon
  TGI: > 100 µM
NCI-H460 lung
  TGI: > 100 µM
A549 NSCLC
  TGI: > 100 µM
SNB-19 CNS
  TGI: > 100 µM
SK-MEL-5 melanoma
  TGI: > 100 µM
COLO 205 colon
  TGI: > 100 µM
RXF 393 renal
  TGI: > 100 µM
KM12 colon
  TGI: > 100 µM
SNB-78 CNS
  TGI: > 100 µM
LOX IMVI melanoma
  TGI: > 100 µM
UACC-62 melanoma
  TGI: > 100 µM
CCRF-CEM leukemia
  TGI: 84.5 µM
IGROV1 ovarian
  TGI: > 100 µM
NCI-H226 lung
  TGI: 84.8 µM
K-562 leukemia
  TGI: > 100 µM
M19-MEL melanoma
  TGI: > 100 µM
HOP-18 NSCLC
  TGI: > 100 µM
M14 melanoma
  TGI: > 100 µM
OVCAR-4 ovarian
  TGI: 96.6 µM
DMS 114 small cell lung
  TGI: 55.2 µM
DLD-1 colon
  TGI: > 100 µM
SF-295 CNS
  TGI: > 100 µM
HCC-2998 colon
  TGI: > 100 µM
U251 CNS
  TGI: > 100 µM
NCI-H522 lung
  TGI: > 100 µM
OVCAR-3 ovarian
  TGI: > 100 µM

## O=C(CC1=Nc2nnc(CCCCCCCc3nnc4n3C(=O)C(CC(=O)c3ccc5ccccc5c3)=N4)n2C1=O)c1ccc2ccccc2c1
MOLT-4 leukemia
  TGI: > 100 µM
KM20L2 colon
  TGI: > 100 µM
SK-OV-3 ovarian
  TGI: > 100 µM
HT29 colon
  TGI: > 100 µM
HCT-116 colon
  TGI: > 100 µM
UO-31 renal
  TGI: > 100 µM
HL-60(TB) leukemia
  TGI: > 100 µM
786-0 renal
  TGI: > 100 µM
HOP-62 NSCLC
  TGI: > 100 µM
LXFL 529 NSCLC
  TGI: > 100 µM
RPMI-8226 leukemia
  TGI: > 100 µM
EKVX NSCLC
  TGI: > 100 µM
CAKI-1 renal
  TGI: > 100 µM
SK-MEL-2 melanoma
  TGI: > 100 µM
SNB-75 CNS
  TGI: > 100 µM
NCI-H23 lung
  TGI: > 100 µM
SN12C renal
  TGI: > 100 µM
UACC-257 melanoma
  TGI: > 100 µM
MALME-3M melanoma
  TGI: > 100 µM
XF 498 CNS
  TGI: > 100 µM
RXF-631 renal
  TGI: > 100 µM
OVCAR-8 ovarian
  TGI: > 100 µM
DMS 273 small cell lung
  TGI: > 100 µM
SF-539 CNS
  TGI: > 100 µM
SK-MEL-28 melanoma
  TGI: > 100 µM
SF-268 CNS
  TGI: > 100 µM
TK-10 renal
  TGI: > 100 µM
ACHN renal
  TGI: > 100 µM
SW-620 colon
  TGI: > 100 µM
NCI-H460 lung
  TGI: > 100 µM
A549 NSCLC
  TGI: > 100 µM
SNB-19 CNS
  TGI: > 100 µM
COLO 205 colon
  TGI: > 100 µM
RXF 393 renal
  TGI: > 100 µM
KM12 colon
  TGI: > 100 µM
SNB-78 CNS
  TGI: > 100 µM
LOX IMVI melanoma
  TGI: > 100 µM
UACC-62 melanoma
  TGI: > 100 µM
CCRF-CEM leukemia
  TGI: > 100 µM
IGROV1 ovarian
  TGI: > 100 µM
SR leukemia
  TGI: > 100 µM
HCT-15 colon
  TGI: > 100 µM
HOP-92 NSCLC
  TGI: > 100 µM
NCI-H226 lung
  TGI: > 100 µM
K-562 leukemia
  TGI: > 100 µM
M19-MEL melanoma
  TGI: > 100 µM
HOP-18 NSCLC
  TGI: > 100 µM
M14 melanoma
  TGI: > 100 µM
OVCAR-4 ovarian
  TGI: > 100 µM
DMS 114 small cell lung
  TGI: > 100 µM
DLD-1 colon
  TGI: > 100 µM
SF-295 CNS
  TGI: > 100 µM
HCC-2998 colon
  TGI: > 100 µM
U251 CNS
  TGI: > 100 µM
NCI-H522 lung
  TGI: > 100 µM
OVCAR-5 ovarian
  TGI: > 100 µM
OVCAR-3 ovarian
  TGI: > 100 µM
